{
  "source": "patent US4084951A",
  "about": "“Silicon compounds containing nucleofugal phosphate group and method of regulating plant growth therewith” (priority 1971, dated 1978)",
  "key": {"[1]": {"assay": "Half lives of various silanes in 0.1M aqueous phosphate buffers at pH 7 and 25°", "type": "physicochemical", "details": "0.1M aqueous phosphate buffer, pH 7, 25°", "procedure": "Half lives of various silanes in 0.1M aqueous\nphosphate buffers at pH 7 and 25°."}, "[2]": {"test_system": "Hevea brasiliensis seedlings", "assay": "Average rubber yield of seedlings treated with silane, neat liquid or 12% solution in petroleum jelly", "type": "in vivo", "procedure": "Three Hevea brasiliensis seedlings were treated with 2-chloroethyltrimethoxysilane (2 μ1) applied as a neat liquid. Three similar seedlings were treated with the same weight of compound applied as a 12% solution in petroleum jelly. The following average yields of rubber were obtained (yield in mg of dry rubber, expressed as a percentage of pretreatment yields in parentheses)."}, "[3]": {"test_system": "Hevea brasiliensis trees (Clone Tjirandji 1)", "assay": "Yield of dried rubber from trees treated on scraped bark below the tapping cut", "type": "in vivo", "details": "20% w/w in palm oil, alternate-day half-spiral tapping, mean over two weeks", "procedure": "A solution of 20% w/w of diphenyl 2-(trimethylsilyl)ethylphosphate in palm oil was applied to 11/2 inch wide strip of scraped bark just below the tapping cut of Hevea brasiliensis trees (Clone Tjirandji 1). The trees were tapped on alternate days using a half-spiral tapping cut. The yield of dried rubber obtained over a four-week period was measured. The mean yields over two weeks, expressed as grams of dry rubber per tree per tapping was 45.5 (194% of control)."}, "[4]": {"details": "12% solution in petroleum jelly, 3 days after treatment"}, "[5]": {"details": "12% solution in petroleum jelly, 7 days after treatment"}, "[6]": {"details": "12% solution in petroleum jelly, 12 days after treatment"}, "[7]": {"details": "12% solution in petroleum jelly, 16 days after treatment"}, "[8]": {"details": "12% solution in petroleum jelly, 24 days after treatment"}, "[9]": {"details": "12% solution in petroleum jelly, 30 days after treatment"}, "[10]": {"details": "12% solution in petroleum jelly, 34 days after treatment"}, "[11]": {"details": "12% solution in petroleum jelly, 42 days after treatment"}, "[12]": {"details": "neat liquid (2 μl), 3 days after treatment"}, "[13]": {"details": "neat liquid (2 μl), 7 days after treatment"}, "[14]": {"details": "neat liquid (2 μl), 12 days after treatment"}, "[15]": {"details": "neat liquid (2 μl), 16 days after treatment"}, "[16]": {"details": "neat liquid (2 μl), 24 days after treatment"}, "[17]": {"details": "neat liquid (2 μl), 30 days after treatment"}, "[18]": {"details": "neat liquid (2 μl), 34 days after treatment"}, "[19]": {"details": "neat liquid (2 μl), 42 days after treatment"}},
  "data": [
    {"molecule": "CO[Si](CCCl)(OC)OC", "note": "[2-chloroethyltrimethoxysilane]", "values": [
      {"measurement": "half-life", "setting": "[1]", "value": 0.333, "unit": "h"},
      {"measurement": "average yield of dry rubber", "setting": "[2]; [4]", "value": 2.2, "unit": "mg"},
      {"measurement": "yield as a percentage of pretreatment yields", "setting": "[2]; [4]", "value": 160, "unit": "%"},
      {"measurement": "average yield of dry rubber", "setting": "[2]; [5]", "value": 2.3, "unit": "mg"},
      {"measurement": "yield as a percentage of pretreatment yields", "setting": "[2]; [5]", "value": 164, "unit": "%"},
      {"measurement": "average yield of dry rubber", "setting": "[2]; [6]", "value": 2.3, "unit": "mg"},
      {"measurement": "yield as a percentage of pretreatment yields", "setting": "[2]; [6]", "value": 164, "unit": "%"},
      {"measurement": "average yield of dry rubber", "setting": "[2]; [7]", "value": 3.0, "unit": "mg"},
      {"measurement": "yield as a percentage of pretreatment yields", "setting": "[2]; [7]", "value": 215, "unit": "%"},
      {"measurement": "average yield of dry rubber", "setting": "[2]; [8]", "value": 2.2, "unit": "mg"},
      {"measurement": "yield as a percentage of pretreatment yields", "setting": "[2]; [8]", "value": 160, "unit": "%"},
      {"measurement": "average yield of dry rubber", "setting": "[2]; [9]", "value": 2.3, "unit": "mg"},
      {"measurement": "yield as a percentage of pretreatment yields", "setting": "[2]; [9]", "value": 164, "unit": "%"},
      {"measurement": "average yield of dry rubber", "setting": "[2]; [10]", "value": 1.8, "unit": "mg"},
      {"measurement": "yield as a percentage of pretreatment yields", "setting": "[2]; [10]", "value": 128, "unit": "%"},
      {"measurement": "average yield of dry rubber", "setting": "[2]; [11]", "value": 0.9, "unit": "mg"},
      {"measurement": "yield as a percentage of pretreatment yields", "setting": "[2]; [11]", "value": 65, "unit": "%"},
      {"measurement": "average yield of dry rubber", "setting": "[2]; [12]", "value": 2.1, "unit": "mg"},
      {"measurement": "yield as a percentage of pretreatment yields", "setting": "[2]; [12]", "value": 230, "unit": "%"},
      {"measurement": "average yield of dry rubber", "setting": "[2]; [13]", "value": 2.2, "unit": "mg"},
      {"measurement": "yield as a percentage of pretreatment yields", "setting": "[2]; [13]", "value": 245, "unit": "%"},
      {"measurement": "average yield of dry rubber", "setting": "[2]; [14]", "value": 1.3, "unit": "mg"},
      {"measurement": "yield as a percentage of pretreatment yields", "setting": "[2]; [14]", "value": 145, "unit": "%"},
      {"measurement": "average yield of dry rubber", "setting": "[2]; [15]", "value": 1.1, "unit": "mg"},
      {"measurement": "yield as a percentage of pretreatment yields", "setting": "[2]; [15]", "value": 122, "unit": "%"},
      {"measurement": "average yield of dry rubber", "setting": "[2]; [16]", "value": 0.9, "unit": "mg"},
      {"measurement": "yield as a percentage of pretreatment yields", "setting": "[2]; [16]", "value": 100, "unit": "%"},
      {"measurement": "average yield of dry rubber", "setting": "[2]; [17]", "value": 0.8, "unit": "mg"},
      {"measurement": "yield as a percentage of pretreatment yields", "setting": "[2]; [17]", "value": 90, "unit": "%"},
      {"measurement": "average yield of dry rubber", "setting": "[2]; [18]", "value": 1.2, "unit": "mg"},
      {"measurement": "yield as a percentage of pretreatment yields", "setting": "[2]; [18]", "value": 134, "unit": "%"},
      {"measurement": "average yield of dry rubber", "setting": "[2]; [19]", "value": 1.0, "unit": "mg"},
      {"measurement": "yield as a percentage of pretreatment yields", "setting": "[2]; [19]", "value": 112, "unit": "%"}
    ]},
    {"molecule": "C[Si](C)(C)CCOP(=O)(Oc1ccccc1)Oc1ccccc1", "note": "[diphenyl 2-(trimethylsilyl)-ethyl phosphate]", "values": [
      {"measurement": "mean yield of dry rubber per tree per tapping", "setting": "[3]", "value": "45.5 grams of dry rubber per tree per tapping"},
      {"measurement": "mean yield relative to control", "setting": "[3]", "value": "194 % of control"}
    ]},
    {"molecule": "CC[S+](C)CC[Si](OC)(OC)OC.[I-]", "note": "(centres unmarked) [ethyl methyl 2-(trimethoxysilyl)-ethyl sulphonium iodide]", "values": [
      {"measurement": "half-life", "setting": "[1]", "value": 14, "unit": "h"}
    ]},
    {"molecule": "CC(C)O[Si](CCCl)(OC(C)C)OC(C)C", "note": "[2-chloroethyltriisopropoxysilane]", "values": [
      {"measurement": "half-life", "setting": "[1]", "value": 504, "unit": "h"}
    ]},
    {"molecule": "C[Si](C)(C)CCCl", "note": "[2-chloroethyltrimethylsilane]", "values": [
      {"measurement": "half-life", "setting": "[1]", "value": "< 0.0167", "unit": "h"}
    ]}
  ]
}
